According to PubChem BioAssay AID2060892 (Molecular Pharmacology Branch, DTP, NCI, 2025):

Test system: HOP-62 complex spheroids with HUVEC/MSC, viability
Assay: Anticancer human tumor HOP-62 cell line growth inhibition [RAS];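 further: spheroids exposed to agents for seven days before readout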;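 on viability, T/C: 100% = DMSO vehicle control viability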
Conditions: for viability, T/C: stronger effect = lower value
Excerpt: RAS pathway inhibitors in Combinations in Complex Spheroids
A high-throughput screen of multi-cell type tumor spheroids was designed to identify active combinations of RAS pathway inhibitors and targeted small molecules. Complex spheroids include a stromal component modeled by human endothelial cells (HUVEC) and fibroblasts modeled by human mesenchymal stem cells (MSCs). The concentration ranges selected for each drug and investigational agent were based upon clinically achievable concentrations if the clinical Cmax of the agent was known.
Compounds. The drugs and investigational agents: abemaciclib (NSC768073), cobimetinib (NSC768068), divarasib (GDC6063, NSC841802), docetaxel (NSC628503), GDC-1971 (RLY-1971, NSC841576), gemcitabine (NSC613327), inavolisib (NSC800729), ipatasertib (NSC767898), KB-0742 (NSC834161), MRTX-1133 (NSC836407), osimertinib (NSC779217), RMC-4630 (NSC839698), RMC-6236 (NSC851965), RMC-6291 (NSC852671), Ro-3306 (NSC812927), sapanisertib (NSC764658), SN-38 (NSC673596), staurosporine (NSC755774), SY5609 (NSC837396), and tovorafenib (DAY101, NSC766906), were obtained from the National Cancer Institute (NCI) Developmental Therapeutics Program Chemical Repository. The FDA-approved anticancer drug set is available from the NCI Developmental Therapeutics Program. […] The stock solutions were prepared in dimethyl sulfoxide (DMSO, Sigma-Aldrich, St. Louis, MO, cat. D2650) at 800-fold the tested concentration and stored at -70 degrees C prior to their use. All drugs and investigational agents were tested over a range starting from a high concentration at or near the clinical Cmax and decreasing in half-log increments. If the clinical Cmax for an agent had not been determined, the highest concentration tested was 10 microM.
Cell Culture. All cells were maintained in an incubator at 37 degrees C and 5% CO2 with 95% humidity. The PDC lines were cultured according to standard operating procedures established by the NCI PDMR. All PDCs were thawed and cultured in Matrigel-coated flasks prepared with a working solution of 1X Ham's F-12 nutrient mix, without supplementation (Invitrogen, Waltham, MA, cat. 11765054), 100 U/mL penicillin-streptomycin (Invitrogen, cat. 15140122), and 2.5% Matrigel (Corning Inc., Corning, NY, cat. 354248) for the first three passages. The 362531-283-R-J2-PDC and 782815-120-R-J1-PDC lines were cultured in 6C/Colon 1B media, which includes advanced DMEM/F-12 (Thermo Fisher Scientific, cat. 12634028), 10 mM HEPES (Thermo Fisher Scientific, cat. 15630080), 1X GlutaMAX supplement (Thermo Fisher Scientific, cat. 35050061), 0.1 mg/mL primocin (InvivoGen, San Diego, CA, cat. ant-pm-2), 10% defined fetal bovine serum, heat inactivated (HyClone Laboratories Inc., Logan, UT, cat. SH30070.03HI), 50% L-WRN conditioned media (ATCC, cat. CRL-3276), 1.25 mM N-Acetyl-L-cysteine (Sigma-Aldrich, cat. A9165), 10 mM nicotinamide (Sigma-Aldrich, cat. N0636), 1X B-27 supplement (Thermo Fisher Scientific, cat. 17504044), 1X N-2 supplement (Thermo Fisher Scientific, cat. 17502048), 50 ng/mL human EGF (Thermo Fisher Scientific, cat. PHG0311), and 10 microM Y-27632 dihydrochloride (Tocris Bioscience, cat. 1254). The K12877-001-R-J1-PDC line was cultured in 6I media, which includes all 6C/Colon 1B media plus 10 ng/mL human FGF-10 (PeproTech, cat. 100-26), 1 ng/mL human FGF-2 (PeproTech, cat. 100-18B), 1 µM prostaglandin E2 (Tocris Bioscience, cat. 2296), […] hydrocortisone (Sigma-Aldrich, cat. H4001), and […] bovine insulin (Sigma-Aldrich, cat. I6634). The K86415-001-R-J1-PDC line was cultured in 6D media, which includes all 6C/Colon 1B media components minus the L-WRN conditioned media. The 485176-168-R4-J1-PDC was cultured in PANC media, which includes all 6C/Colon 1B media plus 100 ng/mL human FGF-10 (PeproTech, cat. 100-26), 500 nM SB-431542 (Selleckchem, cat. S1067), and 10 nM gastrin (Tocris Bioscience, cat. 3006). […]

With C=CC(=O)N1CCN(c2nc(OCC3CCCN3C)nc3c(F)c(-c4nc(N)cc(C)c4C(F)(F)F)c(Cl)cc23)C(C)C1 (configuration not stated) the viability, T/C (compound 0.01 µM, compound 0.0316 µM) was 66.5%, the viability, T/C (compound 0.01 µM, compound 0.1 µM) was 64.5% and the viability, T/C (compound 0.01 µM, compound 0.316 µM) was 71%. For the same molecule, the viability, T/C (compound 0.01 µM, compound 1 µM) was 61.3%, the viability, T/C (compound 0.0316 µM, compound 0.00316 µM) was 68.3% and the viability, T/C (compound 0.0316 µM, compound 0.01 µM) was 62.3%. For the same molecule, the viability, T/C (compound 0.0316 µM, compound 0.1 µM) was 66.5%, the viability, T/C (compound 0.0316 µM, compound 0.316 µM) was 64% and the viability, T/C (compound 0.0316 µM, compound 1 µM) was 64.2%. For the same molecule, the viability, T/C (compound 0.0316 µM) was 67.5%, the viability, T/C (compound 0.1 µM, compound 0.00316 µM) was 59.4% and the viability, T/C (compound 0.1 µM, compound 0.01 µM) was 63.4%. It also gave a viability, T/C (compound 0.1 µM, compound 0.0316 µM) of 57.5%, a viability, T/C (compound 0.1 µM, compound 0.316 µM) of 66.9% and a viability, T/C (compound 0.1 µM, compound 1 µM) of 62.5%. For the same molecule, the viability, T/C (compound 0.1 µM) was 64.9%, the viability, T/C (compound 0.316 µM, compound 0.00316 µM) was 69.2% and the viability, T/C (compound 0.316 µM, compound 0.01 µM) was 68%. For the same molecule, the viability, T/C (compound 0.316 µM, compound 0.0316 µM) was 59.4%, the viability, T/C (compound 0.316 µM, compound 0.1 µM) was 66% and the viability, T/C (compound 0.316 µM, compound 1 µM) was 68%. It also gave a viability, T/C (compound 0.316 µM) of 66.3%, a viability, T/C (compound 1 µM, compound 0.00316 µM) of 76.3% and a viability, T/C (compound 1 µM, compound 0.01 µM) of 65.6%. It also gave a viability, T/C (compound 1 µM, compound 0.0316 µM) of 64%, a viability, T/C (compound 1 µM, compound 0.1 µM) of 66.4% and a viability, T/C (compound 1 µM, compound 0.316 µM) of 65%. The viability, T/C (compound 1 µM) was 67.3% [middle of 13 runs], the IC50 (compound alone, run of 07/15/2024) was over 1000 nM and the IC50 (curve of compound) was over 1000 nM.

CC(=O)OC12COC1CC(O)C1(C)C(=O)C(O)C3=C(C)C(OC(=O)C(O)C(NC(=O)OC(C)(C)C)c4ccccc4)CC(O)(C(OC(=O)c4ccccc4)C21)C3(C)C (configuration not stated) + C#Cc1c(F)ccc2cc(O)cc(-c3ncc4c(N5CC6CCC(C5)N6)nc(OCC56CCCN5CC(F)C6)nc4c3F)c12 showed an IC50 (curve of first compound, second compound 0.0316 µM) of under 31.6 nM, an IC50 (curve of first compound, second compound 0.1 µM) of under 31.6 nM and an IC50 (curve of first compound, second compound 0.316 µM) of under 31.6 nM. It also gave an IC50 (curve of first compound, second compound 1 µM) of under 31.6 nM, an IC50 (curve of first compound, second compound 3.16 µM) of under 31.6 nM and an IC50 (curve of first compound, second compound 10 µM) of under 31.6 nM. It also gave a viability, T/C (second compound 0.0316 µM, first compound 0.0316 µM) of 11.7%, a viability, T/C (second compound 0.0316 µM, first compound 0.1 µM) of 13.2% and a viability, T/C (second compound 0.0316 µM, first compound 0.316 µM) of 14.1%. For the same molecule, the viability, T/C (second compound 0.0316 µM, first compound 1 µM) was 19.5%, the viability, T/C (second compound 0.0316 µM, first compound 3.16 µM) was 19.5% and the viability, T/C (second compound 0.0316 µM, first compound 10 µM) was 26.5%. It also gave a viability, T/C (second compound 0.1 µM, first compound 0.0316 µM) of 14.5%, a viability, T/C (second compound 0.1 µM, first compound 0.1 µM) of 13.9% and a viability, T/C (second compound 0.1 µM, first compound 0.316 µM) of 17.6%. It also gave a viability, T/C (second compound 0.1 µM, first compound 1 µM) of 17.7%, a viability, T/C (second compound 0.1 µM, first compound 3.16 µM) of 18.7% and a viability, T/C (second compound 0.1 µM, first compound 10 µM) of 27.1%. The viability, T/C (second compound 0.316 µM, first compound 0.0316 µM) was 12%, the viability, T/C (second compound 0.316 µM, first compound 0.1 µM) was 12.8% and the viability, T/C (second compound 0.316 µM, first compound 0.316 µM) was 16.6%. For the same molecule, the viability, T/C (second compound 0.316 µM, first compound 1 µM) was 13.6%, the viability, T/C (second compound 0.316 µM, first compound 3.16 µM) was 18.4% and the viability, T/C (second compound 0.316 µM, first compound 10 µM) was 23.5%. For the same molecule, the viability, T/C (second compound 1 µM, first compound 0.0316 µM) was 14.7%, the viability, T/C (second compound 1 µM, first compound 0.1 µM) was 10.3% and the viability, T/C (second compound 1 µM, first compound 0.316 µM) was 13.1%. It also gave a viability, T/C (second compound 1 µM, first compound 1 µM) of 11.6%, a viability, T/C (second compound 1 µM, first compound 3.16 µM) of 17.1% and a viability, T/C (second compound 1 µM, first compound 10 µM) of 15.2%. It also gave a viability, T/C (second compound 3.16 µM, first compound 0.0316 µM) of 9.36%, a viability, T/C (second compound 3.16 µM, first compound 0.1 µM) of 13.4% and a viability, T/C (second compound 3.16 µM, first compound 0.316 µM) of 13.2%. For the same molecule, the viability, T/C (second compound 3.16 µM, first compound 1 µM) was 14%, the viability, T/C (second compound 3.16 µM, first compound 3.16 µM) was 17.8% and the viability, T/C (second compound 3.16 µM, first compound 10 µM) was 17.2%. For the same molecule, the viability, T/C (second compound 10 µM, first compound 0.0316 µM) was 13.1%, the viability, T/C (second compound 10 µM, first compound 0.1 µM) was 12% and the viability, T/C (second compound 10 µM, first compound 0.316 µM) was 13.8%. For the same molecule, the viability, T/C (second compound 10 µM, first compound 1 µM) was 13.7%, the viability, T/C (second compound 10 µM, first compound 3.16 µM) was 14.8% and the viability, T/C (second compound 10 µM, first compound 10 µM) was 21.3%.
